{
  "source": "patent US10328061B2",
  "about": "“Treatment of Zika virus infections using alpha-glucosidase inhibitors” (FLORIDA STATE UNIVERSITY RESEARCH FOUNDATION, INC., priority 2016, dated 2019)",
  "key": {"FSS-13025 strain of ZIKV": {"test_system": "FSS-13025 strain of ZIKV", "assay": "Anti-ZIKV activity in SNB-19 cells, ZIKV-NS1 Western blot", "type": "cell-based, Zika virus", "conditions": "100 μm, 500 μm and 1 mM, one hour prior to inoculation (MOI=1), harvested 24 hours post-infection", "procedure": "FIG. 1. Castanospermine as anti-ZIKV compound. Castanospermine was screened for antiviral activity against ZIKV infection. Glioblastoma SNB-19 cells were treated with castanospermine at the indicated concentrations one hour prior to inoculation with the FSS-13025 strain of ZIKV (at MOI=1). Cells were harvested 24 hours post-infection and analyzed by Western blot for ZIKV-NS1 or GAPDH.\nCells of the glioblastoma SNB-19 cell line were maintained at 37° C. in 5% CO2 in […], 1× penicillin/streptomycin, and 10% fetal bovine serum (Invitrogen). SNB-19 cells were treated with castanospermine at increasing concentrations (100 μm, 500 μm, and 1 mM) one hour prior to inoculation with the FSS-13025 strain of ZIKV. Cells were harvested 24 hours post-infection and analyzed by Western blot for ZIKV-NS1 or GAPDH."}, "Zika virus (FSS13025) [1]": {"test_system": "Zika virus (FSS13025)", "assay": "Zika viral load in serum of Ifnar1-/- mice (ZIKV NS1 ELISA)", "type": "in vivo, Ifnar1-/- mice (C57BL/6 background)", "conditions": "100 mg/kg BW intraperitoneal, day 0 to day 3", "text": "FIGS. 2A-2B. Zika viral load in serum in Ifnar1−/− mice. Serum was separated from the blood by centrifugation. Viral load (NS1) was estimated using the ZIKV NS1 ELISA Kit (BioFront Technologies, Fl, USA) as per the manual. Statistical analysis was done by unpaired t-test using GraphPad Prism software. *p<0.05 is considered as significant (FIG. 2B). With castanospermine treatment, there was 46% reduction in Zika virus load as estimated by NS1 protein in the serum (FIG. 2A).\n(§1) Ifnar1−/− mice (C57BL/6 background) were obtained (Muller U. et al. “Functional role of type I and type II interferons in antiviral defense”. Science. 1994; 264(5167):1918-21. Epub 1994/06/24). Out of 18 total Ifnar1−/− mice, two mice were dosed with castanospermine and media, 8 mice (male+female) were dosed with saline and ZIKV, and 8 mice were dosed with castanospermine and ZIKV on day-0. The drug was continued for three more days and animals were sacrificed on day-3. Body weight and water consumption were monitored daily."}, "Zika virus (FSS13025) [2]": {"test_system": "Zika virus (FSS13025)", "assay": "Zika viral load in liver of Ifnar1-/- mice (ZIKV NS1 gene real time PCR)", "type": "in vivo, Ifnar1-/- mice (C57BL/6 background)", "conditions": "100 mg/kg BW intraperitoneal, day 0 to day 3, ZIKV NS1 gene by real time PCR", "procedure": "FIGS. 3A-3B. Zika viral load in liver of Ifnar1−/− mice. After euthanizing the mice, liver tissue samples were stored in RNAase later buffer, and after homogenization in lysis buffer the total RNA was extracted using Rneasy column (Qiagen). cDNA was prepared using RT reaction. The expression level of the ZIKV NS1 gene was quantified by real time PCR using specific primers. Statistical analysis was done by unpaired t-test using GraphPad Prism software. *p<0.05 is considered as significant (FIG. 3B). There was a 68% decrease in the viral load in the liver with castanospermine treatment (FIG. 3A).\nas §1"}, "West Nile Virus": {"test_system": "West Nile Virus", "conditions": "cited from earlier work"}, "[3]": {"test_system": "Japanese encephalitis virus", "conditions": "compared with Dengue virus; cited from earlier work"}, "[4]": {"test_system": "Japanese encephalitis virus", "conditions": "mice given a lethal dose of Japanese encephalitis virus; cited from earlier work"}, "[5]": {"conditions": "by endogenous esterases; cited from earlier work"}},
  "data": [
    {"compound": "O[C@H]1[C@H](O)[C@@H](O)CN2CC[C@H](O)[C@H]12", "note": "[castanospermine, (1S,6S,7R,8aR)-Tetrahydroxyoctahydroindolizine]", "values": [
      {"measurement": "inhibition of ZIKV infection (ZIKV protein NS1 expression)", "setting": "FSS-13025 strain of ZIKV", "result": "significantly inhibit ZIKV infection"},
      {"measurement": "reduction in Zika virus load as estimated by NS1 protein in the serum", "setting": "Zika virus (FSS13025) [1]", "result": 46, "unit": "%"},
      {"measurement": "decrease in the viral load in the liver", "setting": "Zika virus (FSS13025) [2]", "result": 68, "unit": "%"},
      {"measurement": "sensitivity of West Nile Virus", "setting": "West Nile Virus", "result": "insensitive"}
    ]},
    {"compound": "CCCCCCCCCN1C[C@H](O)[C@@H](O)[C@H](O)[C@H]1CO", "note": "[NN-DNJ, N-nonyl-deoxynojirimycin]", "values": [
      {"measurement": "suppression of cell infection by Japanese encephalitis virus", "setting": "[3]", "result": "suppressed cell infection but to a lesser extent than with Dengue virus"},
      {"measurement": "mortality rate", "setting": "[4]", "result": "decreased mortality rate"}
    ]},
    {"compound": "CCCC(=O)O[C@H]1CN2CC[C@H](O)[C@@H]2[C@@H](O)[C@@H]1O", "note": "[celgosivir, 6-O-butanoyl castanospermine]", "values": [
      {"measurement": "conversion to castanospermine", "setting": "[5]", "result": "rapidly converted"}
    ]}
  ]
}
